Active and inactive are the calls of the source.
How the values were obtained:
[1] = target: T1, Histone-lysine N-methyltransferase NSD2 (Homo sapiens, UniProt O96028); format: biochemical
T1 sequence (O96028 whole entry): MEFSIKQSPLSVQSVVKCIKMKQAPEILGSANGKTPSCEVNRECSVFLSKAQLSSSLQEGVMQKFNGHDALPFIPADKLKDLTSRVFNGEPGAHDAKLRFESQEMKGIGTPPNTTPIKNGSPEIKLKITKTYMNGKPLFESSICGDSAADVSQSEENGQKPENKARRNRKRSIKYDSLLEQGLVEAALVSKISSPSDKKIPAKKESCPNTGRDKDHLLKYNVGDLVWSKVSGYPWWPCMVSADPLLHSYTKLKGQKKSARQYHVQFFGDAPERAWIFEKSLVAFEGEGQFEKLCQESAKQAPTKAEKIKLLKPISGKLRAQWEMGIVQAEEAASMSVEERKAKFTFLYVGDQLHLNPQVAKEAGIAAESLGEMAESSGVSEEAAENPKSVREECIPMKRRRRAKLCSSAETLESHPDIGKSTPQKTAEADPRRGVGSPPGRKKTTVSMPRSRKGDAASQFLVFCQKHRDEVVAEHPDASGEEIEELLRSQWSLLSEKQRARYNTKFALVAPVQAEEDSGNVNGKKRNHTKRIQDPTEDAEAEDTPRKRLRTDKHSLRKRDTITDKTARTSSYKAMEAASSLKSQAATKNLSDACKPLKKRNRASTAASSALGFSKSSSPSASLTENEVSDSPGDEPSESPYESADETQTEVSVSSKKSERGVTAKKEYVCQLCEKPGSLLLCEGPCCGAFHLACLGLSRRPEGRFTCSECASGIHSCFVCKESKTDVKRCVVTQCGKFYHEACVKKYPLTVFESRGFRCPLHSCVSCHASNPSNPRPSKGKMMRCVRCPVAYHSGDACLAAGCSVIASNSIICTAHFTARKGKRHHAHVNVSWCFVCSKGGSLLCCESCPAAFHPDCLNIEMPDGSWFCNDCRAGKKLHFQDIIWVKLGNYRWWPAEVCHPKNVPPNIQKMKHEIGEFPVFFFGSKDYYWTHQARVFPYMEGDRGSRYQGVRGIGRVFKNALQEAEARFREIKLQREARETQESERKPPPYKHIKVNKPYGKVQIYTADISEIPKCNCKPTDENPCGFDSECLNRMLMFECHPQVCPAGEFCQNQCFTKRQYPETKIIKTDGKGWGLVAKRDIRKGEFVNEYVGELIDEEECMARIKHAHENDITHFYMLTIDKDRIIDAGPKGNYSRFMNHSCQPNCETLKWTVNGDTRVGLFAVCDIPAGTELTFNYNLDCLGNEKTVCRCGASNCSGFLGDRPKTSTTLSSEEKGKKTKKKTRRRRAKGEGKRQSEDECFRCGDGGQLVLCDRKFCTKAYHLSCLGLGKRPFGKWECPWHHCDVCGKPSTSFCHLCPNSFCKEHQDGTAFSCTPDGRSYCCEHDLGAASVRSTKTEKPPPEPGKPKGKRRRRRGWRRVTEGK

[2] = target: T2, Tyrosyl-DNA phosphodiesterase 2 (Homo sapiens, UniProt O95551); assay: human TDP2 enzyme inhibitors, dose response, biochemical, epi absorbance, IC50 (AID 743297)
T2 sequence (O95551 whole entry): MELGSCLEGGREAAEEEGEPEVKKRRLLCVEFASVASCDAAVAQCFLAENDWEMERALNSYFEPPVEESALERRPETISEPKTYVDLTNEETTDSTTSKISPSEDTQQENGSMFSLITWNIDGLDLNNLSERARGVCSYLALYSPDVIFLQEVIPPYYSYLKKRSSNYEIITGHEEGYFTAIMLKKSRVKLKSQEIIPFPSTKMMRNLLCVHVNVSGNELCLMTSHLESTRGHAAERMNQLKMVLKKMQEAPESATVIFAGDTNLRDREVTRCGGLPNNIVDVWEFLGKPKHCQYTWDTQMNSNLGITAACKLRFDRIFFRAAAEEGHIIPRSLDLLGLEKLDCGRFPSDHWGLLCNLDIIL

[3] = target: Mitochondrial peptide methionine sulfoxide reductase (Bos taurus, UniProt P54149); assay: Absorbance-based biochemical high throughput dose response assay for activators of Methionine sulfoxide reductase A (MsrA).; format: functional
Mitochondrial peptide methionine sulfoxide reductase, sequence (P54149 whole entry): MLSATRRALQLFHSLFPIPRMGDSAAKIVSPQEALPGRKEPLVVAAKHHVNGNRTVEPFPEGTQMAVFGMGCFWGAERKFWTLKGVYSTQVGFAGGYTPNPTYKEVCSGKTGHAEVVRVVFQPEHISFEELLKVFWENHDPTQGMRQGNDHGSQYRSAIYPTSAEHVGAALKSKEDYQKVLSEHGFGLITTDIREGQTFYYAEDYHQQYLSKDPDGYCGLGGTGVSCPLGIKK

[4] = target: T3, RNA-editing ligase 1, mitochondrial (Trypanosoma brucei brucei, UniProt P86926); assay: TbREL1 ligase inhibitors, dose response, biochemical, fluorescence, Trypanosoma brucei (AID 1117295); format: functional
T3 sequence (P86926 whole entry): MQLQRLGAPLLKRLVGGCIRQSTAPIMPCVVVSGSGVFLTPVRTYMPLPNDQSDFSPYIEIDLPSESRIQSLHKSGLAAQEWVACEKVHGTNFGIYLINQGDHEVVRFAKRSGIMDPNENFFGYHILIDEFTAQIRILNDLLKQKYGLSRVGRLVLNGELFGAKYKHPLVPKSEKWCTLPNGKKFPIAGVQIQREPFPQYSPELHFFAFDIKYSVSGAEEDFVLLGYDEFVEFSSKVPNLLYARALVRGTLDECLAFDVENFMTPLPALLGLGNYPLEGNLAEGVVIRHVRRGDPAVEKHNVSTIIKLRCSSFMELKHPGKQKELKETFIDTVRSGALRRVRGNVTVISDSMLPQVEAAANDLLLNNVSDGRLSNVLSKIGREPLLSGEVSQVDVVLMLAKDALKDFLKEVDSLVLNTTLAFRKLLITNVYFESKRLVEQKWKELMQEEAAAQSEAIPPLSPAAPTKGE

[5] = HepG2 cell cytotoxicity, dose response, cytotoxicity control for Shn3 inhibitor project, CellTiter-Glo, cherry-picked (AID 624134); format: functional, cell-based
[6] = Shn3 3'UTR reporter inhibitors, dose response, cell-based, Clone20 osteoblasts, firefly luciferase, cherry-picked (AID 624132); format: functional;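 note: firefly luciferase luminescence from reporter carrying the Shn3 3'UTR in osteoblasts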
[7] = control 3'UTR Renilla luciferase suppression, dose response, counter-screen for Shn3 inhibitor project, cell-based, Clone20-Shn3RL, cherry-picked (AID 624133); format: functional
[8] = target: T4, COUP transcription factor 2 (Homo sapiens, UniProt P24468); assay: Luminescence-based cell-based high throughput dose response assay to identify inhibitors of COUP-TFII (NR2F2).; format: functional;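 note: HEK293 cells transiently cotransfected with COUP-TFII expression vector and reporter; luciferase reporter luminescence driven by COUP-TFII from the pX2-168 reporter plasmid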
T4 sequence (P24468 whole entry): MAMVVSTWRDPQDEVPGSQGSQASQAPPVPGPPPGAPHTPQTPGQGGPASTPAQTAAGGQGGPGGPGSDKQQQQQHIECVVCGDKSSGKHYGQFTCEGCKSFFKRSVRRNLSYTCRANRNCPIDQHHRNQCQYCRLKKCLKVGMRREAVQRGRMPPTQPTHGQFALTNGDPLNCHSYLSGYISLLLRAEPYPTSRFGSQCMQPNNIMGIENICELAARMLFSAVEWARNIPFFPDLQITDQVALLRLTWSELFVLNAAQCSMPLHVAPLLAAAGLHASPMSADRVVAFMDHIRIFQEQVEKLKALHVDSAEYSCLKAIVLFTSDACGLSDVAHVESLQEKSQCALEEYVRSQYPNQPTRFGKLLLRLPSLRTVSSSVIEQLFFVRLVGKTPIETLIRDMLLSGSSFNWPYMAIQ

Protein Wnt-3a = Protein Wnt-3a (Mus musculus, UniProt P27467); assay: Wnt3a-driven reporter signaling inhibition, dose response, selectivity assay for Gli-SUFU antagonist project, Wnt-LIGHT cells, luminescence (AID 651570); format: functional; conditions: read-out: IC50_Mean;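 note: Wnt-LIGHT reporter cells stimulated with conditioned medium from Wnt3a-producing cells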
Protein Wnt-3a, sequence (P27467 whole entry): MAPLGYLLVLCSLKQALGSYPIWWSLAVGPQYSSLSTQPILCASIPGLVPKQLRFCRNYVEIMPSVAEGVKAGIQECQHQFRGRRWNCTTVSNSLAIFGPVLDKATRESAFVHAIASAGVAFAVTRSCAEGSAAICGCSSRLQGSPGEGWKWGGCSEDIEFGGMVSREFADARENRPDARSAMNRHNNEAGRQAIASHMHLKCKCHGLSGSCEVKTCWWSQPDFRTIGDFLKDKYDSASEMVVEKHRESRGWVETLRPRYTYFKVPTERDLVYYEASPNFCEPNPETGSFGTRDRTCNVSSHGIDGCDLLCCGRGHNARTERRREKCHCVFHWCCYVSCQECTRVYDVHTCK

[9] = target: Ras and Rab interactor 1/Tyrosine-protein kinase ABL1 (Homo sapiens, UniProt P00519+Q13671); format: functional;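 note: biochemical TR-FRET dose-response test measuring inhibition of binding between Rin1 and Abl proteins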
Ras and Rab interactor 1/Tyrosine-protein kinase ABL1, sequence (P00519 whole entry): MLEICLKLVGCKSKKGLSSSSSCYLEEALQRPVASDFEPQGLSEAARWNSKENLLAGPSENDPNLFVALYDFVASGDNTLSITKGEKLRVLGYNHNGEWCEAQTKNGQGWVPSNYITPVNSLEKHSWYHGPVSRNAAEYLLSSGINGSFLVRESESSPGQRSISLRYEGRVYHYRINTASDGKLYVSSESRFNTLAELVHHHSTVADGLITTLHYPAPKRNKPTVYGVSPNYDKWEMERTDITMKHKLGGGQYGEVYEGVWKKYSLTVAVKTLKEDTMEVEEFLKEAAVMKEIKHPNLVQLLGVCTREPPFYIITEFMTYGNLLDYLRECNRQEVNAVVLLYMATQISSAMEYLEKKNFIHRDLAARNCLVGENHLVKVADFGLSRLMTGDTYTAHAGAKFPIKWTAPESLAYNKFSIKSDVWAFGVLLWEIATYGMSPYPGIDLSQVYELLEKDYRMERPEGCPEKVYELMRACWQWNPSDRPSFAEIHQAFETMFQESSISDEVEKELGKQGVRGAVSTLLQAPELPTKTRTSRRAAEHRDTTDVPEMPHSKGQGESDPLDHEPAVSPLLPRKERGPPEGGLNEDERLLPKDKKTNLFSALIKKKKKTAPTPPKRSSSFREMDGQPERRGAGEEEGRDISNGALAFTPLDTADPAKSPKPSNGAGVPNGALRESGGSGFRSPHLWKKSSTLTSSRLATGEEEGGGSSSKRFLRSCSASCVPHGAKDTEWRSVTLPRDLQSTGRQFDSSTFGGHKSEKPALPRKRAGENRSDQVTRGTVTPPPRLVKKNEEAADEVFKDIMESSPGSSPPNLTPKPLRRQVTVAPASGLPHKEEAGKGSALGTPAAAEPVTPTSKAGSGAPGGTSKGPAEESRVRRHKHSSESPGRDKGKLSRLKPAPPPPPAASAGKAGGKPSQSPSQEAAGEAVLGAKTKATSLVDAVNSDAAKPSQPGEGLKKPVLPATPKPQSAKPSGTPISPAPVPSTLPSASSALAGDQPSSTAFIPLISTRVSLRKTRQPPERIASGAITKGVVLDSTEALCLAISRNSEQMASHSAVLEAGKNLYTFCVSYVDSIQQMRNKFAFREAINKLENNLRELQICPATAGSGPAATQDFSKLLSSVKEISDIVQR
Ras and Rab interactor 1/Tyrosine-protein kinase ABL1, sequence (Q13671 whole entry): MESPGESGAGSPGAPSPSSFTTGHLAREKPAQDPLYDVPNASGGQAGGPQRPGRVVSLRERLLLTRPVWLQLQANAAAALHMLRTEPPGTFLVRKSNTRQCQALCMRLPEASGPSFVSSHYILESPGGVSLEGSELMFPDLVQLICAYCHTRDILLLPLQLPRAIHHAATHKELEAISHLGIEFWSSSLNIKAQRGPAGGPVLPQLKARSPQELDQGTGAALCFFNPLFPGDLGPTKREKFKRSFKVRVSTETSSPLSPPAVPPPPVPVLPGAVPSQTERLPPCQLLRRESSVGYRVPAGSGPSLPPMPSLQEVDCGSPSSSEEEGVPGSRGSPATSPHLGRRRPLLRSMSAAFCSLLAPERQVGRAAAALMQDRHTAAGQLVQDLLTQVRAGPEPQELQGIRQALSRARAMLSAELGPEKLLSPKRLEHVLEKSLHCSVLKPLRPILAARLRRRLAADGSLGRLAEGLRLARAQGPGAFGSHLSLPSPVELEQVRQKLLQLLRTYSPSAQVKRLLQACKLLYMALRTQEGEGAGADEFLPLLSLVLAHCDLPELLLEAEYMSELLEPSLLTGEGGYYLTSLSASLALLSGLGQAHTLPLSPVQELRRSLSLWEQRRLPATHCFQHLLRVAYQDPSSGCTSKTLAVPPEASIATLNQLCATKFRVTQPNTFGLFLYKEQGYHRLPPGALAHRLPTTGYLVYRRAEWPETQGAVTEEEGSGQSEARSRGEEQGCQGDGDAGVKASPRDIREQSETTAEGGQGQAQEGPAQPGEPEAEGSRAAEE

[10] = target: T5, Orexin/Hypocretin receptor type 1 (Homo sapiens, UniProt O43613); assay: Homogeneous Time Resolved Fluorescence (HTRF)-based cell-based high throughput dose response assay for antagonists of the orexin 1 receptor (OX1R; HCRTR1). [Related pubchem assays (depositor defined):AID434989, AID435008, AID463079, AID485270, AID492963, AID492964, AID492965, AID493232, AID504717, AID504718]; format: functional
T5 sequence (O43613 whole entry): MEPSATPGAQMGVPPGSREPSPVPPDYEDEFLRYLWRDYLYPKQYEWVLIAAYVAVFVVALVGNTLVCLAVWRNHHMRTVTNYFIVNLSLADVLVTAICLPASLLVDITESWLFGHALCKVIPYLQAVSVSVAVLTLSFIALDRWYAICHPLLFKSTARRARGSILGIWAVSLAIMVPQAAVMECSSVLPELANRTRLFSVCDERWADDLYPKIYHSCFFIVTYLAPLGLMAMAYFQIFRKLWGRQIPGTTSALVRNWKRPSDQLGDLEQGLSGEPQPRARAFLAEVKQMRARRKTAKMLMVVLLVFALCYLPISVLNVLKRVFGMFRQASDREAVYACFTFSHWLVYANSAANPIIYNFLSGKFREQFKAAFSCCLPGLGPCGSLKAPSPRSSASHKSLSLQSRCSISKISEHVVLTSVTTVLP

Orexin receptor type 2 [11] = target: T6, Orexin receptor type 2 (Homo sapiens, UniProt O43614); assay: Counterscreen assay for antagonists of the orexin 1 receptor (OX1R; HCRTR1): Homogeneous Time Resolved Fluorescence (HTRF)-based cell-based dose response assay for antagonists of the orexin 2 receptor (OX2R; HCRTR2), run by assay provider.; format: functional
T6 sequence (O43614 whole entry): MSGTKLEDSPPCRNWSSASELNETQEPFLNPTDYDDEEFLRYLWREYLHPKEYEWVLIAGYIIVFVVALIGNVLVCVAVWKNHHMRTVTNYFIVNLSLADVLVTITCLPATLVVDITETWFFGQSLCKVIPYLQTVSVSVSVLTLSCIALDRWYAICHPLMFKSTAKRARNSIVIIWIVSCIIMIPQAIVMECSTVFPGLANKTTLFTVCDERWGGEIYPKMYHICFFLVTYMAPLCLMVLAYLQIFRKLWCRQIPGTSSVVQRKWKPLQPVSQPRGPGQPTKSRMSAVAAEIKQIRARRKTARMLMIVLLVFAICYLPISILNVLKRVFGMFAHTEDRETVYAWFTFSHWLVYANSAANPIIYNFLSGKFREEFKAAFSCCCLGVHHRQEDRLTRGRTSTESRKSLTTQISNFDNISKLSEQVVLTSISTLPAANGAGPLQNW

[12] = (§1) Counterscreen for antagonists of the orexin 1 receptor (OX1R; HCRTR1): Fluorescence-based cell-based high throughput dose response assay to identify antagonists of the parental CHO cell line. [Related pubchem assays (depositor defined):AID434989, AID435008, AID463079, AID485270, AID492963, AID492964, AID492965, AID493232, AID504699, AID504701]; format: functional
CHO-K1 = assay: as §1, with “Homogeneous time resolved fluorescence (HTRF)-based” for “Fluorescence-based”, “cell-based” for “cell-based high throughput”, “CHO-K1” for “CHO”; format: functional; conditions: Cricetulus griseus;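 note: potency for inhibition of ATP-stimulated IP1 production as antagonists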
Orexin receptor type 2 [13] = target: T6, Orexin receptor type 2; assay: Counterscreen assay for antagonists of the orexin 1 receptor (OX1R; HCRTR1): Fluorescence-based cell-based dose response assay for antagonists of the orexin 2 receptor (OX2R; HCRTR2), run by assay provider.; format: functional
[14] = target: T5, Orexin/Hypocretin receptor type 1; assay: Fluorescence-based cell-based high throughput dose response assay for antagonists of the orexin 1 receptor (OX1R; HCRTR1). [Related pubchem assays (depositor defined):AID434989, AID435008, AID463079, AID485270, AID492963, AID492964, AID492965, AID493232, AID504717, AID504718]; format: functional
[15] = target: Heat shock protein HSP 90-alpha (Homo sapiens, UniProt P07900); format: functional, organism-based
[16] = target: Luciferin 4-monooxygenase (Photinus pyralis, UniProt P08659); assay: firefly luciferase enzyme inhibitors, dose response, biochemical, luminescence (AID 1891)
Luciferin 4-monooxygenase, sequence (P08659 whole entry): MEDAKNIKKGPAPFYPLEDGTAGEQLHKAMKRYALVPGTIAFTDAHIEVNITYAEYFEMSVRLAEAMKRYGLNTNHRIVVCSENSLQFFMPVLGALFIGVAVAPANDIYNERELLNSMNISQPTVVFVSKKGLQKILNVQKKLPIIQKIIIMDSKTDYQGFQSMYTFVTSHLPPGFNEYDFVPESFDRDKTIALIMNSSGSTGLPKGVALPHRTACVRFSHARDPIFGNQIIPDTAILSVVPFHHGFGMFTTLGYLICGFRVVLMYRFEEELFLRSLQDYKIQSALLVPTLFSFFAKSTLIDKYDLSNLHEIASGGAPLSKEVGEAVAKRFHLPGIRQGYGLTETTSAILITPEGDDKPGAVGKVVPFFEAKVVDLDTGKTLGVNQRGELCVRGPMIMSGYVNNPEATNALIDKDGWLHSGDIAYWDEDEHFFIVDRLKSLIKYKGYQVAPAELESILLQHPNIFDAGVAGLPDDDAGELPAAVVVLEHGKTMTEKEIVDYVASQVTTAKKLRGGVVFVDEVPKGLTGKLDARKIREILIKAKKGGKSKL

[17] = HepG2 cell cytotoxicity, dose response, cytotoxicity control, ATP luminescence, cherry-pick, activator set 2 (AID 1053143); format: functional, cell-based
[18] = Luminescence Cell-Based Dose Confirmation HTS to Identify Inhibitors of Platelet Dense Granule Release. [Related pubchem assays: 1663 (Primary HTS), 1678 (Summary of Project)]; format: functional

With COC1=CC(=O)c2nc(Cl)ccc2C1=O the AC50 [1] was 4.32 µM (active), the IC50 [2] was 4.46 µM (active) and the EC50 [3] was 44.4 µM (inactive). For the same compound, the IC50 [4] was 28.3 µM (inactive).

For CC1C(OC(=O)CCC(=O)NC(C)(C)CO)O[C@H]2OC3(C)CC[C@H]4[C@H](C)CCC1C24OO3 (some centres not stated), the AC50 [5] was > 70 µM (inactive), the AC50 [6] was 0.495 µM (active) and the AC50 [7] was 0.841 µM (active). The IC50 [8] was > 85.4 µM (inactive) and the IC50 (Protein Wnt-3a) was 0.794 µM (active).

For CCOC(=O)CCCCC(=O)c1[nH]c(O)nc1CSc1nc2ccccc2[nH]1, the AC50 [1] was 7.6 µM (active) and the IC50 [9] was 0.0967 µM (active).

In the case of Cc1noc(C)c1COc1ccc(C(=O)OCC(=O)N2CC(=O)Nc3ccccc32)cc1, the IC50 [10] is reported as 14.9 µM (inactive), the IC50 (Orexin receptor type 2 [11]) is reported as > 50 µM (inactive) and the IC50 [12] is reported as > 49.8 µM (inactive). The IC50 (CHO-K1) was > 66.2 µM (inactive), the IC50 (Orexin receptor type 2 [13]) was > 88.8 µM (inactive) and the IC50 [14] was 0.861 µM (active).

In the case of Cc1c(CCCl)c(Cl)n2c(nc3ccccc32)c1C#N, the AC50 [5] is reported as 8.13 µM (active), the AC50 [6] is reported as 0.912 µM (active) and the AC50 [7] is reported as 2.98 µM (active). The AC50 [15] was 3.86 µM (active).

For CCOC(=O)N1CCN(C(=O)CSc2ccc(-c3ccccc3)nn2)CC1, the IC50 [10] was 2.12 µM (active), the IC50 (Orexin receptor type 2 [11]) was > 50 µM (inactive) and the IC50 [12] was > 49.7 µM (inactive). For the same compound, the IC50 (CHO-K1) was > 66.2 µM (inactive), the IC50 (Orexin receptor type 2 [13]) was > 88.8 µM (inactive) and the IC50 [14] was 16.3 µM (inactive).

For Cn1c(=O)c2c(nc(-n3ccnc3)n2Cc2ccc(Cl)cc2Cl)n(C)c1=O, the IC50 [9] was 2.62 µM (active).

For COc1cccc2oc3ccc(C#Cc4ccccn4)cc3c(=O)c12, the IC50 [10] was 0.881 µM (active), the IC50 (Orexin receptor type 2 [11]) was 0.82 µM (active) and the IC50 [12] was > 49.8 µM (inactive). For the same compound, the IC50 (CHO-K1) was > 66.2 µM (inactive), the EC50 [16] was 1.19 µM (active) and the AC50 [17] was 16.4 µM (active). The EC50 [18] was 5.1 µM (active), the IC50 (Orexin receptor type 2 [13]) was > 88.8 µM (inactive) and the IC50 [14] was 13.5 µM (inactive).
